Measurements reported in ChEMBL document CHEMBL1127792, “Total synthesis and biological properties of novel antineoplastic (chloromethyl)furanoindolines: an asymmetric hydroboration mediated synthesis of the alkylation subunits” (J Med Chem, 1994).
≈ marks a conversion by molar mass, not a printed value.

What was measured:
[1] = tested on: T222; assay: Concentration for 50% growth inhibition relative to untreated control in the human lung epidermoid carcinoma (T222) cell line; Not active; type: functional, cell-based
[2] = tested on: T222; assay: Concentration for 50% growth inhibition relative to untreated control in the human lung epidermoid carcinoma (T222) cell line; type: functional, cell-based
[3] = tested on: Nucleic Acid; assay: Relative concentration of compound for alkylation of w794 DNA is detected at incubation condition of 4 degrees C for 24 hr; Range is 0.01-0.006; type: functional
[4] = tested on: Mus musculus; assay: Percent inhibition against [3H]-Leucine uptake at a dose of 0.1 mg/Kg in a mouse bearing a T222 tumor burden; type: functional
[5] = tested on: Nucleic Acid; assay: Relative concentration of compound for alkylation of w794 DNA detected at incubation condition of 4 degrees C for 24 hr; Range is 1.0-0.2; type: functional
[6] = tested on: Mus musculus; assay: Percent inhibition against [3H]leucine uptake at a dose of 0.2 mg/Kg in a mouse bearing a T222 tumor burden; type: functional
[7] = tested on: Mus musculus; assay: Acute toxicity was measured as ratio of number of mice that died to the 5 mice in test group on a dose of 0.4 mg/Kg; type: organism-based; settings: in vivo
[8] = tested on: Mus musculus; assay: Acute toxicity was measured as ratio of number of mice that died to the 5 mice in test group on a dose of 0.1 mg/Kg; type: organism-based; settings: in vivo
[9] = tested on: Mus musculus; assay: Acute toxicity was measured as ratio of number of mice that died to the 5 mice in the test group on a dose of 0.05 mg/Kg; type: organism-based; settings: in vivo
[10] = tested on: Mus musculus; assay: Acute toxicity was measured as ratio of number of mice that died to the 5 mice in test group on a dose of 0.2 mg/Kg; type: organism-based; settings: in vivo
[11] = tested on: Mus musculus; assay: Percent inhibition against [3H]leucine uptake at a dose of 0.05 mg/Kg in mouse bearing a T222 tumor burden; type: functional

Q: For `Cc1coc2c(O)cc3c(c12)C(C)(C)CN3C(=O)c1cc2cc(NC(=O)c3cc4ccccc4[nH]3)ccc2[nH]1`, which IC50 [1] is on record?
A: Not Active

Q: Which IC50 [2] does the source give for `Cc1coc2c(O)cc3c(c12)[C@H](CCl)CN3C(=O)c1cc2cc(NC(=O)c3cc4ccccc4s3)ccc2[nH]1` here?
A: 0.2 ng/mL (≈ 0.36 nM)

Q: Which IC50 [2] does the source give for `Cc1coc2c(O)cc3c(c12)[C@H](CCl)CN3C(=O)c1cc2cc(NC(=O)c3cc4ccccc4s3)ccc2s1` here?
A: 0.2 ng/mL (≈ 0.349 nM)

Q: With `Cc1coc2c(O)cc3c(c12)[C@@H](CCl)CN3C(=O)c1cc2cc(NC(=O)c3cc4ccccc4[nH]3)ccc2[nH]1` as the molecule, how does the Efficiency [3] read?
A: 0.006

Q: Which inhibition in vivo at 0.1 mg/kg [4] does the source give for `Cc1coc2c(O)cc3c(c12)C(CCl)CN3C(=O)c1cc2cc(NC(=O)c3cc4ccccc4[nH]3)ccc2[nH]1` (single isomer, unassigned) here?
A: 73%

Q: And the Efficiency [5]?
A: 0.2

Q: And the inhibition in vivo at 0.2 mg/kg [6]?
A: 85%

Q: What about the Toxicity [7] of the same molecule?
A: 5

Q: What about the Toxicity [8] of the same molecule?
A: 0

Q: What about the Toxicity [9] of the same molecule?
A: 0

Q: What about the Toxicity [10] of the same molecule?
A: 1

Q: And the inhibition in vivo at 0.05 mg/kg [11]?
A: 68%

Q: With `CC[C@]1(O)C[C@@H]2CN(CCc3c([nH]c4ccccc34)[C@@](C(=O)OC)(c3cc4c(cc3OC)N(C)[C@H]3[C@@](O)(C(=O)NN)[C@H](O)[C@]5(CC)C=CCN6CC[C@]43[C@@H]65)C2)C1` [DESACETYLVINBLASTINEHYDRAZIDE] as the molecule, how does the IC50 [2] read?
A: 3 ng/mL (≈ 3.9 nM)
